Consider 28 compounds from US12630528B2, “Amino aryl derivative useful as diacylglycerol acyltransferase 2 inhibitor and use thereof” (LG CHEM, LTD., priority 2019, dated 2026).

Bounds are passed on as bounds.

The target in this assay is T1, human DGAT2 (Homo sapiens, UniProt Q96PD7).
T1 construct: FLAG (DYKDDDDK); made in house; host or cells: Sf-21 insect cells (BacPAK baculovirus system); membrane fraction used
T1 sequence (Q96PD7 1-388): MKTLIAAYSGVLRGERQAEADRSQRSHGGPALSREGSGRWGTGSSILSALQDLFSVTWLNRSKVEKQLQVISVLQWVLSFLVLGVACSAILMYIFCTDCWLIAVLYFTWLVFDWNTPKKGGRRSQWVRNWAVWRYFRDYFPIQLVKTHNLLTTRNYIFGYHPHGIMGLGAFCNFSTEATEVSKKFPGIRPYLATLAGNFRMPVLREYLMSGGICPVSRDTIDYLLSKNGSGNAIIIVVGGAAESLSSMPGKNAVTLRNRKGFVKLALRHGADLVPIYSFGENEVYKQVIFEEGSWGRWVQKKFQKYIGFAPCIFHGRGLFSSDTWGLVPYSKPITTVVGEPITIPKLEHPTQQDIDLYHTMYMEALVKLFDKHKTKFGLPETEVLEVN
As to the kind of experiment: DGAT2 enzyme activity inhibition, Phospholipid FlashPlate SPA. In kind it is biochemical. The settings on record: recombinant human DGAT2 membrane protein from Sf-21 cells; inhibition of [14C]-TG production; 37° C. The procedure, abridged: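 Sf-21 membranes expressing recombinant human DGAT2 (2 μg) preincubated with compound (3 nM–10 μM, 1% DMSO) and 50 μM 1,2 sn-oleoyl glycerol, 20 min at 37 °C, then 1 μM [14C]oleoyl-CoA for 15 min. [14C]-TG counted by SPA; inhibition as % of untreated.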
Broadly, the IC50 is the concentration at which inhibition is half-maximal. For `CCOc1cccnc1O[C@@H]1CCCN(c2cncc(Nc3cccc(Oc4cccc(C(C)(C)C(=O)O)c4)n3)n2)C1` [Example 92, (R)-2-(3-((6-((6-(3-((3-ethoxypyridin-2-yl)oxy)piperidin-1-yl)pyrazin-2-yl)amino)pyridin-2-yl)oxy)phenyl)-2-methylpropanoic Acid], the IC50 was 300 nM. The value for “(R)-2-(4-((6-(3-(2-ethoxyphenoxy)pyridin-1-yl)pyrazin-2-yl)amino)phenyl)-2-methylpropanoic Acid [Example 28]” was more than 10000 nM; that for `CCOc1cccnc1O[C@@H]1CCCN(c2cncc(Nc3nccc(-c4cccc(CC(C)(C)C(=O)O)c4)n3)n2)C1` [Example 147, (R)-3-(3-(2-((6-(3-((3-ethoxypyridin-2-yl)oxy)piperidin-1-yl)pyrazin-2-yl)amino)pyrimidin-4-yl)phenyl)-2,2-dimethylpropanoic Acid] was 150 nM; that for `CCOc1ccccc1O[C@@H]1CCCN(c2cccc(Nc3nccc(-c4cccc(CC(C)(C)C(=O)O)c4)n3)n2)C1` [Example 148, (R)-3-(3-(2-((6-(3-(2-ethoxyphenoxy)piperidin-1-yl)pyridin-2-yl)amino)pyrimidin-4-yl)phenyl)-2,2-dimethylpropanoic Acid] was 3100 nM. For the compound `CCOc1ccccc1O[C@@H]1CCCN(c2cncc(Nc3nc(C)c(C)s3)n2)C1` [Example 2, (R)—N-(6-(3-(2-ethoxyphenoxy)piperidin-1-yl)pyrazin-2-yl)-4,5-dimethylthiazol-2-amine], the IC50 was determined as 6500 nM. Take `CCOc1ccccc1O[C@@H]1CCCN(c2cncc(Nc3nccc(N4CCN(CC(=O)O)CC4)n3)n2)C1` [Example 127, (R)-2-(4-(2-((6-(3-(2-ethoxyphenoxy)piperidin-1-yl)pyrazin-2-yl)amino)pyrimidin-4-yl)piperazin-1-yl)acetic Acid]: the IC50 came out at 2900 nM. For `CCOc1ccccc1O[C@@H]1CCCN(c2cncc(Nc3cc(-c4ccc(CC(C)(C)C(=O)O)cc4)ccn3)n2)C1` [Example 45, (R)-3-(4-(2-((6-(3-(2-ethoxyphenoxy)piperidin-1-yl)pyrazin-2-yl)amino)pyridin-4-yl)phenyl)-2,2-dimethylpropanoic Acid], the IC50 stood at 770 nM. For `CCOc1ccccc1O[C@@H]1CCCN(c2cncc(Nc3cccc(N4CCC(C)(C(=O)O)C4)n3)n2)C1` (stereo partly drawn) [Example 53, 1-(6-((6-((R)-3-(2-ethoxyphenoxy)piperidin-1-yl)pyrazin-2-yl)amino)pyridin-2-yl)-3-methylpyrrolidine-3-carboxylic Acid], the IC50 was found to be 510 nM.

Take `CCOc1ccccc1O[C@@H]1CCCN(c2cncc(Nc3cccc(Oc4ccc(C(C)(C)C(=O)O)cc4)n3)n2)C1` [Example 93, (R)-2-(4-((6-((6-(3-(2-ethoxyphenoxy)piperidin-1-yl)pyrazin-2-yl)amino)pyridin-2-yl)oxy)phenyl)-2-methylpropanoic Acid]: the IC50 amounted to 170 nM. The value for `CCOc1ccccc1O[C@@H]1CCCN(c2cncc(Nc3nc4cc(CC(=O)O)ccc4o3)n2)C1` [Example 12, (R)-2-(2-((6-(3-(2-ethoxyphenoxy)piperidin-1-yl)pyrazin-2-yl)amino)benzo[d]oxazol-5-yl)acetic Acid] was 3400 nM. For `CCOc1ccccc1O[C@@H]1CCCN(c2cncc(Nc3cncc(-c4cccc(CC(C)(C)C(=O)O)c4)n3)n2)C1` [Example 112, (R)-3-(3-(6-((6-(3-(2-ethoxyphenoxy)piperidin-1-yl)pyrazin-2-yl)amino)pyrazin-2-yl)phenyl)-2,2-dimethylpropanoic Acid], the IC50 turned out to be 200 nM.

As to `CCOc1ccccc1O[C@@H]1CCCN(c2cncc(Nc3cccc(N4CCC[C@@H](C(=O)O)C4)n3)n2)C1` [Example 55, (R)-1-(6-((6-((R)-3-(2-ethoxyphenoxy)piperidin-1-yl)pyrazin-2-yl)amino)pyridin-2-yl)piperidine-3-carboxylic Acid], the IC50 is 860 nM. Consider `CCOc1ccccc1O[C@@H]1CCCN(c2cncc(Nc3ccc(CC(=O)O)cn3)n2)C1` [Example 36, (R)-2-(6-((6-(3-(2-ethoxyphenoxy)piperidin-1-yl)pyrazin-2-yl)amino)pyridin-3-yl)acetic Acid], for which the IC50 is more than 10000 nM. For the compound `CCOc1ccccc1O[C@@H]1CCCN(c2cncc(Nc3nccc(N4CCC[C@@H](OCC(=O)O)C4)n3)n2)C1` [Example 132, 2-(((R)-1-(2-((6-((R)-3-(2-ethoxyphenoxy)piperidin-1-yl)pyrazin-2-yl)amino)pyrimidin-4-yl)piperidin-3-yl)oxy)acetic Acid], the IC50 turned out to be 6700 nM. With `CCOc1ccccc1O[C@@H]1CCCN(c2cncc(Nc3cccc(-c4ccc(NCC(=O)O)cc4)n3)n2)C1` [Example 73, (R)-(4-(6-((6-(3-(2-ethoxyphenoxy)piperidin-1-yl)pyrazin-2-yl)amino)pyridin-2-yl)phenyl)glycine], the IC50 came to 890 nM. Turning to `CCOc1ccccc1O[C@@H]1CCCN(c2cncc(Nc3ccnc(-c4cccc(C(C)(C)C(=O)O)c4)n3)n2)C1` [Example 168, (R)-2-(3-(4-((6-(3-(2-ethoxyphenoxy)piperidin-1-yl)pyrazin-2-yl)amino)pyrimidin-2-yl)phenyl)-2-methylpropanoic Acid], the IC50 was determined as 420 nM.

For `CCOc1ccccc1O[C@@H]1CCCN(c2cncc(Nc3nnnn3C)n2)C1` [Example 23, (R)-6-(3-(2-ethoxyphenoxy)piperidin-1-yl)-N-(1-methyl-1H-tetrazol-5-yl)pyrazin-2-amine], the IC50 worked out at 270 nM.

On to `CCOc1ccccc1O[C@@H]1CCCN(c2cncc(Nc3nccc(-c4ccc(NC(C)(C)C(=O)O)cc4)n3)n2)C1` [Example 161, (R)-2-((4-(2-((6-(3-(2-ethoxyphenoxy)piperidin-1-yl)pyrazin-2-yl)amino)pyrimidin-4-yl)phenyl)amino)-2-methylpropanoic Acid], for which the 50% inhibitory concentration (IC50) was found to be 190 nM. Regarding `CCOc1ccccc1O[C@@H]1CCCN(c2cncc(Nc3cccc(OCc4ccc(C(=O)O)cc4)n3)n2)C1` [Example 99, (R)-4-(((6-((6-(3-(2-ethoxyphenoxy)piperidin-1-yl)pyrazin-2-yl)amino)pyridin-2-yl)oxy)methyl)benzoic Acid], the IC50 is 570 nM. The value for `CCOc1ccccc1O[C@@H]1CCCN(c2cncc(Nc3cccc(N4CCCC(C(=O)O)C4)n3)n2)C1` (stereo partly drawn) [Example 54, 1-(6-((6-((R)-3-(2-ethoxyphenoxy)piperidin-1-yl)pyrazin-2-yl)amino)pyridin-2-yl)piperidine-3-carboxylic Acid] was 910 nM; that for `CCOc1ccccc1O[C@@H]1CCCN(c2cccc(Nc3cccc(-c4cccc(CC(C)(C)C(=O)O)c4)n3)n2)C1` [Example 65, (R)-3-(3-(6-((6-(3-(2-ethoxyphenoxy)piperidin-1-yl)pyridin-2-yl)amino)pyridin-2-yl)phenyl)-2,2-dimethylpropanoic Acid] was 1500 nM; that for `CCOc1cc(F)ccc1O[C@@H]1CCCN(c2cncc(Nc3cccc(-c4ccc(OC(C)(C)C(=O)O)cc4)n3)n2)C1` [Example 177, (R)-2-(4-(6-((6-(3-(2-ethoxy-4-fluorophenoxy)piperidin-1-yl)pyrazin-2-yl)amino)pyridin-2-yl)phenoxy)-2-methylpropanoic Acid] was 380 nM.

In the case of `CCOc1ccccc1O[C@@H]1CCCN(c2cncc(Nc3nccc(N4CCC[C@@H](CC(=O)O)C4)n3)n2)C1` [Example 128, 2-((S)-1-(2-((6-((R)-3-(2-ethoxyphenoxy)piperidin-1-yl)pyrazin-2-yl)amino)pyrimidin-4-yl)piperidin-3-yl)acetic Acid], the IC50 stood at 160 nM. In the case of `CCOc1ccccc1O[C@@H]1CCCN(c2cncc(Nc3cncc(-c4cccc(CC(C)(C)C(=O)O)c4)c3)n2)C1` [Example 47, (R)-3-(3-(5-((6-(3-(2-ethoxyphenoxy)piperidin-1-yl)pyrazin-2-yl)amino)pyridin-3-yl)phenyl)-2,2-dimethylpropanoic Acid], the IC50 was more than 10000 nM. Take `CCOc1ccccc1O[C@@H]1CCCN(c2ccnc(Nc3nccc(-c4cccc(CC(C)(C)C(=O)O)c4)n3)n2)C1` [Example 150, (R)-3-(3-(2-((4-(3-(2-ethoxyphenoxy)piperidin-1-yl)pyrimidin-2-yl)amino)pyrimidin-4-yl)phenyl)-2,2-dimethylpropanoic Acid]: the IC50 was found to be 1200 nM. As for `CCOc1ccccc1O[C@@H]1CCCN(c2cncc(Nc3ccn(CC(=O)O)n3)n2)C1` [Example 20, (R)-2-(3-((6-(3-(2-ethoxyphenoxy)piperidin-1-yl)pyrazin-2-yl)amino)-1H-pyrazol-1-yl)acetic Acid], the figure is more than 10000 nM; as for `CCOc1ccccc1O[C@@H]1CCCN(c2nccc(Nc3nccc(-c4ccc(CC(C)(C)C(=O)O)cc4)n3)n2)C1` [Example 155, (R)-3-(4-(2-((2-(3-(2-ethoxyphenoxy)piperidin-1-yl)pyrimidin-4-yl)amino)pyrimidin-4-yl)phenyl)-2,2-dimethylpropanoic Acid], 550 nM. As to `CCOc1ccccc1O[C@@H]1CCCN(c2cncc(Nc3cccc(-c4ccc(CC(C)(C)C(=O)O)cc4)c3)n2)C1` [Example 30, (R)-3-(3′-((6-(3-(2-ethoxyphenoxy)piperidin-1-yl)pyrazin-2-yl)amino)-[1,1′-biphenyl]-4-yl)-2,2-dimethylpropanoic Acid], the IC50 was found to be 2400 nM.
